Here are results for eight molecules from ChEMBL document CHEMBL5038569, “Targeting RECQL5 Functions, by a Small Molecule, Selectively Kills Breast Cancer in Vitro and in Vivo” (J Med Chem, 2021).

Activity calls are given as the source filed them. The rule behind the calls is not given here.

Test [1] deals with MCF7. Description: Cytotoxicity against RECQL5 knock out human MCF7 cells assessed as cell growth inhibition measured after 72 hrs by MTT assay. Format: functional. The note with it: dose 6-50 µM. In general terms: Formazan colour is commonly taken as a measure of viable cells.
The test system of test [2] is MCF7. Description: Cytotoxicity against human MCF7 cells expressing wild type RECQL5 assessed as cell growth inhibition measured after 72 hrs by MTT assay. The note with it: dose 6-50 µM. Format: functional.
The species named for another test is Homo sapiens. Nature of the test: Inhibition of full length His-tagged human RECQL5 expressed in Escherichia coli incubated for 15 mins by fluorescence based assay.

`COc1ccc(NC(=O)N[C@@H](Cc2ccccc2)c2nnc(SCc3ccccc3)o2)cc1`: the Activity entry in the test on MCF7 [1] and in the test with MCF7 [2] was “Dose-Dependent Effect” each time.
In the case of `O=C(Nc1cc(C(F)(F)F)cc(C(F)(F)F)c1)N[C@@H](Cc1ccccc1)c1nnc(SCc2ccccc2)o1`, the Activity result in the test on MCF7 [1] and in the test on MCF7 [2] was “Dose-Dependent Effect” each time. Moreover, the inhibition entry in the test listed under Homo sapiens is “inactive”.
As for `COc1ccc(NC(=O)N[C@@H](c2ccccc2)c2nnc(SCc3ccccc3)o2)cc1`, the result with MCF7 [1] and in the test with MCF7 [2] was inactive.
Consider `Cc1ccc(NC(=O)N[C@@H](Cc2ccccc2)c2nnc(SCc3ccccc3)o2)cc1`, for which the Activity result in the test with MCF7 [1] and in the test with MCF7 [2] was “Dose-Dependent Effect” in each case.
As for `O=C(Nc1ccc([N+](=O)[O-])cc1)N[C@@H](Cc1ccccc1)c1nnc(SCc2ccccc2)o1`, the Activity result with MCF7 [1] and in the test with MCF7 [2] was “Dose-Dependent Effect” throughout.
For `Cc1ccc(NC(=O)N[C@@H](c2ccccc2)c2nnc(SCc3ccccc3)o2)cc1`, the Activity result in the test on MCF7 [1] and with MCF7 [2] was “Dose-Dependent Effect” each time.
Take `O=C(Nc1ccc([N+](=O)[O-])cc1)N[C@@H](c1ccccc1)c1nnc(SCc2ccccc2)o1`: the Activity result in the test on MCF7 [1] and in the test with MCF7 [2] was “Dose-Dependent Effect” throughout.
With `O=C(NCc1nnc(SCc2ccccc2)o1)Nc1cc(C(F)(F)F)cc(C(F)(F)F)c1`, the Activity entry in the test on MCF7 [1] and in the test on MCF7 [2] was “Dose-Dependent Effect” each time.
